Measurements: patent publication US20260240792A1, “COMPOSITIONS FOR TREATING 5-HT2 CONDITIONS AND METHODS OF USING THE SAME” (Board of Supervisors of Louisiana State University and …, priority 2022, published 2026)
“And” between values parts separate entries of the source, which are not always exact repeats. Equal values may be shown once. “Also recorded” adds a separate entry of the source.

Test system: rabbits
Assay: Intraocular pressure (IOP) after topical ocular dosing in rabbits
Type: in vivo, rabbit
Details: for Ave OS 2 hpt IOP: left eye; for Ave OS 2 hpt IOP / Avg OD 2 hpt IOP: 2 hours after dosing
Procedure: The IOP was assessed as a component of clinical outcomes for the animals in the studies described herein. The table below represents the effect of R-DOI on IOP 2 hours after dosing with the indicated concentration of R-DOI. Eyes were individually assessed and are indicated as IOP for the right (OD) or left (OS) eye.
Each eye of each rabbit was then assessed for initial IOP by tonometer.
IOP determinations were made at 30 minutes, 1 hour, 1.5 hours and 2.5 hours-eyes were examined closely for any adverse effects during these IOP measures.
3 days post treatment at the same time initial measures were made, IOP and tear film production were re-assessed to examine if effects were sustained post 1 treatment.
The IOP was assessed via a TonoVet rebound Tonometer. The tables herein (see, for example, FIG. 4) represent the effect of Compound 1 on IOP at time intervals within the first 2.5 hours after dosing with 0.01% Compound 1 in BSS with 0.5% CMC. Eyes were individually assessed and are indicated as IOP for the right (OD) or left (OS) eye. 3 days post treatment eyes were reassessed for IOP changes to see if the effects of treatment lasted over a prolonged period.
• Rabbits were assessed for clinically clear eyes by slit lamp ophthalmic scoring. All eyes of all rabbits were normal. • Each eye of each rabbit was then assessed for initial IOP by tonometer. • Each eye of each rabbit was assessed for tear film production by Schirmer's Tear Flo Strips at a 30 second interval of analysis. Tear measures were evaluated by a digital caliper to determine mm of tears collected. • Rabbits were sorted into two groups attempting to balance IOP numbers (one higher, one lower animal per group). • Following animals were treated with 50 μL of Control ophthalmic BSS/0.5% CMC or 0.01% R-DOI HCl in ophthalmic BSS/0.5% CMC. • Any apparent behavioral changes were continuously monitored over the next 2.5 hours. • IOP determinations were made at 30 minutes, 1 hour, 2 hours and 3 hours, 5 hours, 7 hours and 24 hours-eyes were examined closely for any adverse effects during these IOP measures. • 7 hours post treatment when IOP returned to control levels tear film production was assessed (see, for example, FIG. 9).
The IOP was assessed via a TonoVet rebound Tonometer. The tables herein (see, for example, FIGS. 10-11) represents the effect of R-DOI on IOP at the defined time intervals Eyes were individually assessed and are indicated as IOP for the right (OD) or left (OS) eye.

[1] = 0.01% single dose, group E5/E6, 2 h
[2] = 0.1% single dose, group E3/E4, 2 h

COc1cc(C[C@@H](C)N)c(OC)cc1I [R-DOI, (R)-1-(2,5-dimethoxy-4-iodophenyl)-2-aminopropane]
time post administration by which a significant decrease in IOP was shown (0.01% single dose): ≤ 30 min | whether the decrease in intraocular pressure was sustained (0.01% single dose, IOP followed to 24 hours): not sustained following 3 hours post treatment | Avg % change Group [1]: −53.33% | Avg Delta Eye Group [1]: −7.75 | Ave OS 2 hpt IOP (0.01% single dose): 13.50 and 7.00 | Avg OD 2 hpt IOP (0.01% single dose, right eye): 12.25 and 7.00 | % Change (OD) (0.01% single dose, right eye, 2 h vs starting IOP): −56.67% and −50.00% | Avg % change Group [2]: −30.77% | Avg Delta Eye Group [2]: −4.94 | Ave OS 2 hpt IOP (0.1% single dose): 13.25 and 9.00 | Avg OD 2 hpt IOP (0.1% single dose, right eye): 11.50 and 13.25 | effect on intraocular pressure (single topical ocular dose): decreased IOP with the greatest reduction of IOP observed for the lower R-DOI dosages; also recorded: acutely decreased intraocular pressure with a single dose
